# Test results reported in US6440984B1, “Use of aryl-substituted pyrimidines as insecticidal and acaricidal agents” (BASF Aktiengesellschaft, priority 1998, dated 2002).
# Test system: Aphis Fabae, Mixed Instar, Bean Aphid (BA)
# Test: Bean aphid (BA) foliar spray test, mortality after 2 days
# Type: in vivo
# Conditions: Aphis fabae, 48 h, rating scale, read-out: BA AD-FOLIAR 300 (ppm)
# Method: (§1) Test solutions are prepared by dissolving the test compound in a 35% acetone in water mixture to give a concentration of 10,000 ppm. Subsequent dilutions are made with water as needed.
# Aphis Fabae, Mixed Instar, Bean Aphid (BA)
# Pots containing single nasturtium plants (Tropaeolum sp.) about 5 cm tall are infested with about 100-200 aphids one day before the test. Each pot is sprayed with the test solution for 2 revolutions of a 4 rpm turntable in a hood. The spray is directed to give complete coverage of the plants and aphids. The sprayed pots are set on their sides on white trays and held for 2 days, following which mortality estimates are made. Essentially the same method is used with respect to cotton aphid (CA).
row,Compound,pest or weed control at 300 ppm [%]
1,CSc1cc(-c2cccc(C(F)(F)F)c2)nc(Oc2cccc(C(F)(F)F)c2)n1 [Compound 108],45 to 75
2,FC(F)(F)c1cccc(Oc2nccc(-c3cccc(C(F)(F)F)c3)n2)c1 [Compound 109],45 to 75
3,CN(C)c1cc(-c2cccc(C(F)(F)F)c2)nc(Oc2cccc(C(F)(F)F)c2)n1 [Compound 111],76 to 100
4,Fc1ccc(Oc2nccc(-c3ccccc3)n2)cc1C(F)(F)F [Compound 130],0 to 45
5,Fc1cccc(Oc2nccc(-c3ccc(Cl)cc3)n2)c1 [Compound 137],76 to 100
6,N#Cc1cccc(Oc2nccc(-c3ccc(Cl)cc3)n2)c1 [Compound 141],45 to 75
7,COc1cccc(Oc2nccc(-c3ccc(Cl)cc3)n2)c1 [Compound 143],76 to 100
8,Clc1ccc(-c2ccnc(Oc3ccc(Cl)c(Cl)c3)n2)cc1 [Compound 151],45 to 75
9,COc1ccc(-c2ccnc(Oc3ccc(F)c(C(F)(F)F)c3)n2)cc1 [Compound 153],45 to 75
10,FC(F)(F)c1cccc(Oc2nccc(-c3ccc(Cl)c(Cl)c3)n2)c1 [Compound 154],45 to 75
11,Fc1ccc(Oc2nccc(-c3ccc(Cl)c(Cl)c3)n2)cc1C(F)(F)F [Compound 155],76 to 100
12,FC(F)(F)c1cccc(Oc2nccc(-c3ccc(Br)cc3)n2)c1 [Compound 161],76 to 100

# Same assay, conditions: rating scale
row,Compound,BA AD-FOLIAR 300 (ppm)
1,O=[N+]([O-])c1ccc(-c2ccnc(Oc3cccc(C(F)(F)F)c3)n2)cc1 [Compound 9],B (B 45-75% kill)
2,CCc1ccc(-c2ccnc(Oc3ccc(F)c(Cl)c3)n2)cc1 [Compound 13],C (C 76-100% kill)
3,CCc1ccc(-c2ccnc(Oc3cccc(C(F)(F)F)c3)n2)cc1 [Compound 15],C (C 76-100% kill)
4,CCc1ccc(-c2ccnc(Oc3ccc(Cl)c(C(F)(F)F)c3)n2)cc1 [Compound 17],C (C 76-100% kill)
5,FC(F)(F)c1cccc(-c2ccnc(Oc3ccc(Cl)c(Cl)c3)n2)c1 [Compound 20],B (B 45-75% kill)
6,CC(C)(C)c1ccc(-c2ccnc(Oc3ccc(Cl)c(C(F)(F)F)c3)n2)cc1 [Compound 25],A (A 0-45% kill)
7,CC(C)(C)c1ccc(-c2ccnc(Oc3ccc([N+](=O)[O-])c(C(F)(F)F)c3)n2)cc1 [Compound 26],B (B 45-75% kill)
8,FC(F)(F)c1ccc(-c2ccnc(Oc3ccc(Cl)c(Cl)c3)n2)cc1 [Compound 28],A (A 0-45% kill)
9,Fc1ccc(Oc2nccc(-c3ccc(C(F)(F)F)cc3)n2)cc1Cl [Compound 31],B (B 45-75% kill)
10,O=[N+]([O-])c1ccc(Oc2nccc(-c3ccc(C(F)(F)F)cc3)n2)cc1C(F)(F)F [Compound 33],B (B 45-75% kill)
11,FC(F)(F)Oc1ccc(-c2ccnc(Oc3cc(C(F)(F)F)cc(C(F)(F)F)c3)n2)cc1 [Compound 45],C (C 76-100% kill)
12,FC(F)(F)Oc1ccc(-c2ccnc(Oc3ccc(Cl)c(C(F)(F)F)c3)n2)cc1 [Compound 46],B (B 45-75% kill)
13,Fc1cc(-c2ccnc(Oc3ccc(F)c(C(F)(F)F)c3)n2)cc(C(F)(F)F)c1 [Compound 53],C (C 76-100% kill)
14,Fc1cc(-c2ccnc(Oc3ccc(Cl)c(Cl)c3)n2)cc(C(F)(F)F)c1 [Compound 58],C (C 76-100% kill)
15,Fc1cc(F)cc(-c2ccnc(Oc3cccc(C(F)(F)F)c3)n2)c1 [Compound 61],C (C 76-100% kill)
16,Fc1cc(F)cc(-c2ccnc(Oc3ccc(F)c(C(F)(F)F)c3)n2)c1 [Compound 62],B (B 45-75% kill)

# Test system: Spodoptera Eridania, 3rd Instar Larvae, Southern Armyworm (SAW)
# Test: Southern armyworm (SAW) leaf-dip test, observations at 5 days
# Type: in vivo
# Conditions: Southern Army Worm, rating scale
# Method: as §1
# Spodoptera Eridania, 3rd Instar Larvae, Southern Armyworm (SAW)
# A Sieva lima bean leaf expanded to 7-8 cm in length is dipped in the test solution with agitation for 3 seconds and allowed to dry in a hood. The leaf is then placed in a 100×10 mm petri dish containing a damp filter paper on the bottom and ten 3rd instar caterpillars. At 5 days, observations are made of mortality, reduced feeding, or any interference with normal molting.
row,Compound,SAW 2^ND-FOLIAR 1000 (ppm)
1,FC(F)(F)c1cc(Oc2nccc(-c3ccc(Cl)cc3)n2)ccc1Cl [Compound 1],A (A 0-45% kill)
2,O=[N+]([O-])c1ccc(Oc2nccc(-c3ccc(Cl)cc3)n2)cc1C(F)(F)F [Compound 3],B (B 45-75% kill)
3,Fc1ccc(Oc2nccc(-c3ccccc3)n2)cc1C(F)(F)F [Compound 6],A (A 0-45% kill)
4,O=[N+]([O-])c1ccc(Oc2nccc(-c3ccccc3)n2)cc1C(F)(F)F [Compound 8],A (A 0-45% kill)
5,CCc1ccc(-c2ccnc(Oc3ccc(F)c(Cl)c3)n2)cc1 [Compound 13],C (C 76-100% kill)
6,FC(F)(F)c1cccc(-c2ccnc(Oc3ccc(Cl)c(Cl)c3)n2)c1 [Compound 20],A (A 0-45% kill)
7,O=[N+]([O-])c1ccc(Oc2nccc(-c3cccc(OC(F)(F)F)c3)n2)cc1C(F)(F)F [Compound 40],A (A 0-45% kill)
8,FC(F)(F)Oc1ccc(-c2ccnc(Oc3cc(Cl)cc(Cl)c3)n2)cc1 [Compound 44],A (A 0-45% kill)
9,FC(F)(F)Oc1ccc(-c2ccnc(Oc3ccc(Cl)c(C(F)(F)F)c3)n2)cc1 [Compound 46],B (B 45-75% kill)
10,Fc1cc(-c2ccnc(Oc3cccc(C(F)(F)F)c3)n2)cc(C(F)(F)F)c1 [Compound 52],A (A 0-45% kill)
11,Fc1cc(-c2ccnc(Oc3ccc(F)c(C(F)(F)F)c3)n2)cc(C(F)(F)F)c1 [Compound 53],A (A 0-45% kill)
12,Fc1cc(F)cc(-c2ccnc(Oc3ccc(F)c(C(F)(F)F)c3)n2)c1 [Compound 62],C (C 76-100% kill)

# Same assay, conditions: Spodoptera eridania, foliar, 120 h, Southern Army Worm, rating scale, read-out: SAW 2^ND-FOLIAR 1000 (ppm)
row,Compound,pest or weed control at 1000 ppm [%]
1,CCc1cnc(Oc2cccc(C(F)(F)F)c2)nc1-c1ccc(Cl)c(F)c1 [Compound 82],76 to 100
2,FC(F)(F)c1cccc(Oc2nccc(-c3cccc(C(F)(F)F)c3)n2)c1 [Compound 109],0 to 45
3,FC(F)(F)c1cccc(Oc2nc(Cl)cc(-c3cccc(C(F)(F)F)c3)n2)c1 [Compound 110],76 to 100
4,Fc1ccc(Oc2nccc(-c3cccc(C(F)(F)F)c3)n2)cc1C(F)(F)F [Compound 112],0 to 45
5,CSc1cc(-c2ccc(Cl)cc2)nc(Oc2cccc(Cl)c2)n1 [Compound 119],45 to 75
6,FC(F)(F)c1cc(Oc2nccc(-c3ccc(Cl)cc3)n2)ccc1Cl [Compound 122],45 to 75
7,Fc1ccc(Oc2nccc(-c3ccc(Cl)c(Cl)c3)n2)cc1C(F)(F)F [Compound 155],0 to 45
8,FC(F)(F)c1cccc(Oc2nccc(-c3ccc(Br)cc3)n2)c1 [Compound 161],0 to 45
9,Fc1ccc(Oc2nccc(-c3ccc(Br)cc3)n2)cc1C(F)(F)F [Compound 162],0 to 45

# Test system: Tetranychus Urticae (OP-resistant strain), 2-spotted Spider Mite (TSM)
# Test: Two-spotted spider mite (TSM) plant-dip test, mortality after 2 days
# Type: in vivo
# Conditions: Tetranychus urticae, 48 h, rating scale, read-out: TSM AD-FOLIAR 300 (ppm)
# Method: as §1
# Tetranychus Urticae (OP-resistant strain), 2-spotted Spider Mite (TSM)
# Sieva lima bean plants with primary leaves expanded to 7-8 cm are selected and cut back to one plant per pot. A small piece is cut from an infested leaf taken from the main colony and placed on each leaf of the test plants. This is done about 2 hours before treatment to allow the mites to move over to the test plant to lay eggs. The size of the cut, infested leaf is varied to obtain about 100 mites per leaf. At the time of test treatment, the piece of leaf used to transfer the mites is removed and discarded. The newly-infested plants are dipped in the test solution for 3 seconds with agitation and set in the hood to dry. After 2 days, one leaf is removed and mortality counts are made.
row,Compound,pest or weed control at 300 ppm [%]
1,Fc1cccc(Oc2nccc(-c3ccc(Cl)cc3)n2)c1 [Compound 142],76 to 100

# Same assay, conditions: rating scale
row,Compound,TSM AD-FOLIAR 300 (ppm)
1,FC(F)(F)c1cccc(Oc2nccc(-c3ccc(Cl)cc3)n2)c1 [Compound 2],C (C 76-100% kill)
2,Fc1ccc(Oc2nccc(-c3ccc(Cl)cc3)n2)cc1C(F)(F)F [Compound 4],A (A 0-45% kill)
3,CCc1ccc(-c2ccnc(Oc3cccc(C(F)(F)F)c3)n2)cc1 [Compound 15],C (C 76-100% kill)
4,FC(F)(F)Oc1cccc(-c2ccnc(Oc3cc(Cl)cc(Cl)c3)n2)c1 [Compound 41],A (A 0-45% kill)
5,Fc1ccc(Oc2nccc(-c3ccc(F)c(C(F)(F)F)c3)n2)cc1C(F)(F)F [Compound 70],B (B 45-75% kill)
